Seven compounds from patent US20100099663A1, “4-TRIFLUOROMETHOXYPHENOXYBENZOL-4'-SULFONIC ACIDS, METHOD FOR THE PRODUCTION AND USE THEREOF IN MEDICAMENTS” (SANOFI-AVENTIS DEUTSCHLAND GMBH, priority 2004, published 2010) can be followed below.

In data set [1] the target is T1, catalytic domain of human collagenase-3 (MMP-13) (Homo sapiens, UniProt P45452).
T1 construct: Determination of the Enzymatic Activity of the Catalytic Domain of Human Collagenase-3 (MMP-13); purchased INVITEK, Berlin 30 100 803
In words: Enzymatic activity of the catalytic domain of human collagenase-3 (MMP-13), fluorogenic substrate. Particulars: APMA-activated proenzyme, pH 7.5, read-out: Matrix metalloproteinase inhibition MMP-13 (IC50). It counts as biochemical. As to the method:
Determination of the Enzymatic Activity of the Catalytic Domain of Human Collagenase-3 (MMP-13).
Activation of the proenzyme:
2 parts by volume of proenzyme were incubated with 1 part by volume of APMA solution at 37° C. for 1.5 hours. The APMA solution was prepared from a 10 mmol/l p-aminophenylmercuric acetate solution in 0.1 mmol/l NaOH by dilution with 3 parts by volume of Tris/HCl buffer pH 7.5 (see below). The pH was adjusted to between 7.0 and 7.5 by adding 1 mmol/l HCl. After activation of the enzyme it was diluted with the Tris/HCl buffer to a concentration of 1.67 μg/ml.
The enzymic activity was measured by incubating 10 μl of enzyme solution with 10 μl of a 3% strength (v/v) buffered dimethyl sulfoxide solution (reaction 1) for 15 minutes. The enzyme inhibitor activity was measured by incubating 10 μl of enzyme solution with 10 μl of a 3% strength (v/v) buffered dimethyl sulfoxide solution which contained the enzyme inhibitor (reaction 2).
The enzymic reaction both in the case of reaction 1 and in the case of reaction 2 was followed after addition of 10 μl of a 3% strength (v/v) aqueous dimethyl sulfoxide solution which contains 0.075 mmol/l of the substrate by fluorescence spectroscopy (328 nm (extinction)/393 nm (emission)).
The enzymic activity has been presented as increase in extinction/minute. The effect of the inhibitor was calculated as percentage inhibition by the following formula:
% inhibition=100−[(increase in extinction/minute in reaction 2)/(increase in extinction/minute in reaction 1)×100].
The IC50, which is the concentration of inhibitor which is necessary for 50% inhibition of the enzymic activity, was determined graphically by plotting the percentage inhibitions at various inhibitor concentrations.
The buffer solution contained 0.05% Brij (Sigma, Deisenhofen, Germany) and 0.1 mol/l of Tris/HCl, 0.1 mol/l of NaCl, 0.01 mol/l of CaCl2 (pH=7.5).
The enzyme solution contained 1.67 μg/ml of the enzyme domain. The substrate solution contained 0.075 mmol/l of the fluorogenic substrate (7-methoxycoumarin-4-yl)acetyl-Pro-Leu-Gly-Leu-3-(2′,4′-dinitrophenyl)-L-2,3-diaminopropionyl-Ala-Arg-NH2 (Bachem, Heidelberg, Germany).

Data set [2] has as its target T2, catalytic domain of human stromelysin (MMP-3) (Homo sapiens, UniProt P08254).
T2 construct: Enzymatic Activity of the Catalytic Domain of Human Stromelysin (MMP-3); made in house
Put plainly: Enzymatic activity of the catalytic domain of human stromelysin (MMP-3), fluorogenic substrate. The data set is classed as biochemical. Particulars: pH 7.5, 15 min preincubation, read-out: Matrix metalloproteinase inhibition MMP-3 (IC50). How it is done: (§1) Preparation and Determination of the Enzymatic Activity of the Catalytic Domain of Human Stromelysin (MMP-3) and of Neutrophil Collagenase (MMP-8).
(§2) The two enzymes stromelysin (MMP-3) and neutrophil collagenase (MMP-8) were prepared by the method of Ye et al. (Biochemistry; 31 (1992) pages 11231-11235). The enzymic activity or the effect of the enzyme inhibitor was measured by incubating 10 μl of enzyme solution with 10 μl of a 3% strength (v/v) buffered dimethyl sulfoxide solution which contained the enzyme inhibitor where appropriate, for 15 minutes. After addition of 10 μl of a 3% strength (v/v) aqueous dimethyl sulfoxide solution which contained 1 mmol/l of the substrate, the enzymic reaction was followed by fluorescence spectroscopy (328 nm (ex)/393 nm(em)).
(§3) The enzymic activity is presented as increase in extinction/minute. The IC50 values listed in Table 1 were determined as the inhibitor concentrations leading in each case to 50% inhibition of the enzyme.
(§4) The buffer solution contained 0.05% Brij (Sigma, Deisenhofen, Germany) and 0.1 mol/l of Tris/HCl, 0.1 mol/l of NaCl, 0.01 mol/l of CaCl2 and 0.1 mol/l of piperazine-N,N′-bis[2-ethanesulfonic acid] (pH=7.5).
(§5) The MMP-3 enzyme solution contained 2.3 μg/ml and the MMP-8 enzyme solution 0.6 μg/ml of one of the enzyme domains prepared by the method of Ye et al. The substrate solution contained 1 mmol/l of the fluorogenic substrate (7-methoxycoumarin-4-yl)acetyl-Pro-Leu-Gly-Leu-3-(2′,4′-dinitrophenyl)-L-2,3-diaminopropionyl-Ala-Arg-NH2 (Bachem, Heidelberg, Germany).

Data set [3] deals with T3, catalytic domain of neutrophil collagenase (MMP-8) (Homo sapiens, UniProt P22894).
T3 construct: Catalytic Domain of Human Stromelysin (MMP-3) and of Neutrophil Collagenase (MMP-8); made in house
T3 sequence (P22894 100-262 limits assumed): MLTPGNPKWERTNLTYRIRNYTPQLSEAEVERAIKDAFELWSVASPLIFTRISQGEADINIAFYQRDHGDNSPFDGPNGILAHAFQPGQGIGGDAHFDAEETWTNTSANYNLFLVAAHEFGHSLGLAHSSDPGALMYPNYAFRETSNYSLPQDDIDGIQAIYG
Put plainly: Enzymatic activity of the catalytic domain of neutrophil collagenase (MMP-8), fluorogenic substrate. It counts as biochemical. Particulars: pH 7.5, 15 min preincubation, read-out: Matrix metalloproteinase inhibition MMP-8 (IC50). How it is done:
as §1, §2, §3, §4, §5

Data set [4] can be described thus: Pharmacokinetic measurements in mice after oral administration (n-in-one study). It counts as in vivo. To be noted: male C57/BL mice, oral by gavage about 7.5 mg per kg in PEG400/water 1:1, n-in-one, plasma. How it is done: In each case 14 or 16 male C57/BL mice with an average weight of 20 to 28 g were used for the investigation, and divided into two groups. The animals had free access to feed and water. The substances were dissolved in PEG400/water 1:1 and administered orally by gavage in a concentration of about 7.5 mg per kg (equivalent to about […] per animal). In each case, 2 novel compounds and one comparative compound were previously dissolved separately, mixed and administered simultaneously (n-in-one study). Blood samples were taken after 0.25, 0.5, 1, 2, 4, 6, 8 and 24 h, and the substance concentration was determined quantitatively by HPLC-MS under standardized conditions as described below. The individual results were initially combined within the two groups and then the average was formed therefrom. The pharmacokinetic parameters are calculated using the noncompartmental model (extravascular input).
Quantification took place by HPLC-MS-MS. An HPLC system from Agilent (1100) was used, coupled to a PE-Sciex API 4000 (triple quadruple mass spectrometer). The column used was a ProdigyR 5μ ODS, flow rate […], injected volumes 16 μl. Eluent: acetonitrile-0.002% ammonium formate. Detection took place in MS/MS mode (multiple reaction monitoring) focussed on Q1 and selective masses (fragment) filtration on Q3.
Workup of the plasma samples beforehand took place as follows: admixture of 25 μl of 60/40 acetonitrile/0.1% formate plus 25 μl of internal standard 5 μg/ml in the same solvent, plus 25 μl of blank plasma or sample plasma, plus 200 μl of acetonitrile. Mixing for 5 min was followed by centrifugation (3 min, 5000 g) and then pipetting of 200 μl into the measurement vessels.
Cmax is the maximum plasma concentration reached at one of the sampling times. AUC “area under the curve”, time course of the decrease in concentration and Cmax determine the magnitude of the value.

pIC50: −log10 of the molar value.

T2 sequence (P08254 100-272 limits assumed): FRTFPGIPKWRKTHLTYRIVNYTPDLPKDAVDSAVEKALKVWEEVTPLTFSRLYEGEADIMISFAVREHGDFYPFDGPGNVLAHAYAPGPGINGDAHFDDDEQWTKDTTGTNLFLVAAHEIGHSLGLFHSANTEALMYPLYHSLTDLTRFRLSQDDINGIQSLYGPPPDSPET

With “5-[4-(4-Trifluoromethoxyphenoxy)benzenesulfonyl]octahydrofuro[3,2-c]pyridine-4-carboxylic acid [Example 5]”, the negative-log IC50 (pIC50) in data set [1] was 6.62; in data set [2], 6.42; in data set [3], 6.68.

`O=C(NO)C1c2ccccc2CCN1S(=O)(=O)c1ccc(Oc2ccc(OC(F)(F)F)cc2)cc1` (stereo not drawn) [Example 3, 2-[4-[4-Trifluoromethoxyphenoxy)benzenesulfonyl]-1,2,3,4-tetrahydroisoquinoline-1-(N-hydroxy)carboxamide]: in data set [4], the area under the curve (AUC) came to 2230 ng·h/mL, the Cmax worked out at 1350 ng/mL and the t½ was 6.6 h. Also, the negative logarithm of the IC50 (pIC50) in data set [1] was 8.70. Further, the pIC50 in data set [2] is 7.55. In addition, the pIC50 in data set [3] is 8.44.

As for `O=C(NO)C1C2CCCCC2CCN1S(=O)(=O)c1ccc(Oc2ccc(OC(F)(F)F)cc2)cc1` (stereo not drawn) [Example 4, 2-[4-(4-Trifluoromethoxyphenoxy)benzenesulfonyl]decahydroisoquinoline-1-(N-hydroxy)carboxamide], the figures for the negative logarithm of the IC50 (pIC50) in data set [1], in data set [2] and in data set [3] were 8.40, 7.16 and 7.85, respectively.

In the case of `O=C(NO)C1C2CCOC2CCN1S(=O)(=O)c1ccc(Oc2ccc(OC(F)(F)F)cc2)cc1` (stereo not drawn) [Example 6, 5-[4-(4-Trifluoromethoxyphenoxy)benzenesulfonyl]octahydrofuro[3,2-c]pyridine-4-(N-hydroxy)carboxamide], the results for the pIC50 in data set [1], in data set [2] and in data set [3] were 8.70, 7.62 and 8.40, respectively.

As for `O=C(NO)C1C2CCCCC2CCCN1S(=O)(=O)c1ccc(Oc2ccc(OC(F)(F)F)cc2)cc1` (stereo not drawn) [Example 7, 2-[4-(4-Trifluoromethoxyphenoxy)benzenesulfonyl]decahydrobenzo[c]azepine-1-(N-hydroxy)carboxamide], the figures for the negative-log IC50 (pIC50) in data set [1], in data set [2] and in data set [3] were 8.70, 7.62 and 8.40, respectively.

Take `COc1ccc(Oc2ccc(S(=O)(=O)N3CCc4ccccc4C3C(=O)NO)cc2)cc1` (stereo not drawn) [Example 9, 2-[4-(4-Methoxyphenoxy)benzenesulfonyl]-1,2,3,4-tetrahydroisoquinoline-1-N-hydroxycarboxamide, reference compound]: in data set [4], the area under the curve (AUC) is 250 ng·h/mL, the Cmax came out at 450 ng/mL and the t½ stood at 1.5 h. Also, the negative logarithm of the IC50 (pIC50) in data set [1] is 8.66. Besides, the pIC50 in data set [2] was 7.64. Moreover, the negative-log IC50 (pIC50) in data set [3] is 8.64.

In data set [4], `O=C(O)C1c2ccccc2CCN1S(=O)(=O)c1ccc(Oc2ccc(OC(F)(F)F)cc2)cc1` (stereo not drawn) [Example 10, 2-[4-(4-Trifluorophenoxy)benzenesulfonyl]-1,2,3,4-tetrahydroisoquinoline-1-carboxylic acid] yielded an AUC of 160 ng·h/mL, a peak concentration (Cmax) of 240 ng/mL and a t½ of 1.8 h.

Broadly, the pIC50 is the negative decadic logarithm of the IC50, by convention in mol/L. The AUC is concentration integrated over time. In general, Cmax refers to the peak of the concentration-time curve. For orientation: t½ means the time needed for the level to fall by half in the phase considered. High values mean slow decline, low ones rapid decline.
